Several values for one entry are separate records, joined by “and”; a condition that tells them apart may be missing. Equal values may be shown once.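 48-hour exposure; five concentrations; linearly interpolated endpoints. GI50 is the concentration that inhibits growth by half. TGI denotes the concentration required for complete inhibition of growth.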 Where only a bound is given, the exact number is not on record here.

These results are taken from PubChem BioAssay (NCI).

What all share (test): NCI-60 cell line screen, 48 h
For assay [1], the system named is OVCAR-3 ovarian.
For assay [2], the system named is SW-620 colon.
For assay [3], the system named is T-47D breast.
Assay [4] has as its system NCI-H460 lung.
The test system of assay [5] is IGROV1 ovarian.
Assay [6] relates to UACC-62 melanoma.
Assay [7] deals with HCC-2998 colon.
Assay [8] deals with CAKI-1 renal.
Assay [9] has as its system SNB-19 CNS.
The subject of assay [10] is SK-OV-3 ovarian.

For the compound `CCN1C(=O)N(CC)C2C1NN=c1s/c(=C\c3ccc(Br)cc3)c(=O)n12` (centres undefined), the GI50 is 0.102 µM in assay [1]; 0.0762 µM in assay [2]; 5.11 µM in [3]; 0.119 µM in assay [4]; 0.275 µM in [5]; 0.0557 µM in assay [6]. Besides, the GI50 in assay [7] was 0.349 µM; in [8], 0.065 µM; in assay [9], 0.346 µM; in [10], 1.84 µM. In addition, the TGI in [1] was > 100 µM; in assay [2], > 100 µM; in assay [3], > 100 µM; in assay [4], > 100 µM; in [5], > 82.2 µM; in assay [6], > 100 µM. Moreover, the TGI in assay [7], in assay [8], in [9] and in assay [10] was > 100 µM in each case.
Regarding `COc1cccc(/C=C/C(=O)c2cc3c(N)c(C(=O)Nc4ccccc4)sc3nc2C)c1`, the GI50 is 1.18 µM in assay [1]; 1.12 µM in assay [2]; 1.24 µM in assay [3]; 1.1 µM in [4]; 0.954 µM in [5]; 0.943 µM in assay [6]. Moreover, the GI50 in [7] is 0.901 µM; in assay [8], 0.933 µM; in assay [9], 1.52 µM; in assay [10], 4.96 µM. Further, the TGI in [1] was determined as 3.32 µM; in assay [2], 3.09 µM; in assay [3], 3.89 µM; in [4], 2.47 µM; in assay [5], 2 µM; in assay [6], 2.19 µM. Also, the TGI in assay [7] turned out to be 1.66 µM; in assay [8], 1.91 µM; in [9], 5.58 µM; in [10], 19.8 µM.
On to `OC(CBr)C(O)C(O)C(O)CBr` (centres undefined), for which the TGI in [1] is 97 µM and > 100 µM; in [2] it was > 100 µM; in [3] it was > 100 µM; in [4], > 100 µM; in assay [5], > 100 µM; in assay [6] it was > 75.4 µM and 65.1 µM. In addition, the TGI in [7], in assay [8], in [9] and in assay [10] was > 100 µM throughout. The GI50 was 49.4 µM and > 100 µM in assay [5]; 19.9 µM and 9.75 µM in assay [6]; 9.66 µM and 44.7 µM in assay [8]; 36 µM and > 100 µM in assay [9].
Regarding `Cc1ccc2c(c1)n([O-])c(C(F)(F)F)c(C(=O)c1ccco1)[n+]2=O`, the GI50 is 0.573 µM in assay [1]; 0.966 µM in [2]; 0.472 µM in [3]; 0.262 µM in assay [4]; 0.205 µM in [5]; 0.723 µM in assay [6]. Moreover, the GI50 in assay [7] is 0.716 µM; in [8] it was 0.0845 µM; in [9], 1.47 µM; in assay [10], 1.59 µM. For the same compound, the TGI is 1.75 µM in [1]; 8.15 µM in [2]; 4.18 µM in [3]; 1.52 µM in [4]; 9 µM in assay [5]; 1.61 µM in assay [6]. Further, the TGI in [7] came out at 1.67 µM; in assay [8], 0.448 µM; in assay [9], 6.82 µM; in [10] it was 7.39 µM.
On to `COc1cc(-c2cc(-c3ccc(Nc4nc(Nc5ccc(Cl)cc5)nc(Nc5ccc(Cl)cc5)n4)cc3)no2)cc(OC)c1OC`, for which the GI50 in assay [1] is 6.68 µM; in assay [2] it was 19.9 µM; in assay [3], 3.15 µM; in [4], 6.79 µM; in assay [5], 3.22 µM; in assay [6], 71.7 µM. Moreover, the GI50 was 13.1 µM in assay [7], 5.53 µM in assay [8], 26.8 µM in assay [9] and > 100 µM in [10]. In addition, the TGI in assay [1] was 88.9 µM; in assay [2], > 100 µM; in [3], > 100 µM; in assay [4], 46.4 µM; in [5], > 100 µM; in assay [6], > 100 µM. Further, the TGI in [7] was 91.3 µM; in [8], > 100 µM; in assay [9] it was > 100 µM; in [10], > 100 µM.
`O=C(O)[C@@H](Cc1ccccc1)NS(=O)(=O)c1ccc(-c2ccccc2)cc1`: the GI50 in assay [1], in assay [2], in [3], in assay [4], in [5] and in assay [6] was > 100 µM in each case. Besides, the GI50 in assay [7], in assay [8], in [9] and in [10] was > 100 µM in each case. Also, the TGI in assay [1], in assay [2], in assay [3], in assay [4], in assay [5] and in assay [6] was > 100 µM throughout. In addition, the TGI in assay [7], in [8], in assay [9] and in [10] was > 100 µM in each case.
Regarding `Nc1nc(N)c2c(n1)NC(c1ccc(Cl)cc1)C1CCc3ccccc3C1=N2` (centres undefined), the GI50 in assay [1] is 6.46 µM; in [2], 8.23 µM; in [3], 4.09 µM; in [4], 3.77 µM; in assay [5] it was 6.16 µM; in assay [6], 3.66 µM. The GI50 in assay [7] is 12.2 µM; in assay [8], 4.33 µM; in [9], 16.8 µM; in [10] it was 11 µM. The TGI came to 19 µM in assay [1]; 22.6 µM in assay [2]; 17.8 µM in [3]; 12.9 µM in assay [4]; 20.4 µM in assay [5]; 18.3 µM in [6]. Besides, the TGI in assay [7] came out at 24.7 µM; in assay [8] it was 18.8 µM; in assay [9], 30.4 µM; in assay [10], 23 µM.
